Holding throughout (type): cell-based
The subject of assay [1] is C. albicans DAY185. In words: photodynamic inactivation (PDI) with photosensitizers. As to conditions: 4 μg/mL A16, 10 μM PEI-ce6. As for the experimental part: The PS used were Rose Bengal (RB, Sigma-Aldrich, St. Louis, Mo.) and chlorin(e6) (ce6, Frontier Scientific, Logan, Utah). PEI-ce6 was synthesized as a covalent conjugate between polyethylenimine (MW range 10,000-25,000, an average of one ce6 per chain) and ce6 as described previously (Tegos et al., Antimicrob Agents Chemother, 50:1402-1410 (2006)). Stock solutions were prepared in water at a concentration of 2 mM and stored for a maximum of 2 weeks in the dark at 4° C. before use. Spectra of stock solutions of PS diluted 140- to 280-fold in methanol were recorded. A noncoherent light source with interchangeable fiber bundles (LC122; LumaCare, London, United Kingdom) was employed. Thirty-nanometer-band-pass filters at ranges of 540±15 nm for RB, and 660±15 nm for ce6 and PEI-ce6 were used. […]
Photodynamic inactivation utilizes a non-toxic dye, or photosensitizer (PS), which is able to generate reactive oxygen species, such as singlet oxygen and hydroxyl radical, in the presence of oxygen and low-intensity light of the correct wavelength to be absorbed by the PS ultimately producing toxic effects in microbial cells (Fuchs et al., Antimicrob Agents Chemother, 51:2929-2936 (2007)). […] The survival fraction and uptake (molecules/cell) of C. albicans was determined for PDI mediated by the 3 different PSs with or without A16 pre-incubation for various time periods ranging between 1-24 hours. […]

In assay [2] the test system is C. albicans DAY185. Nature of the assay: NaCl induced osmotic stress growth assay. As to conditions: 2 μg/mL A16; untreated control 1.25 M. As for the experimental part: (§1) Caspofungin (Merck) served as a known antifungal compound control. In vitro hyphal inhibition was assessed by incubation of DAY185 in RPMI 1640 media at 37° C. After 48 hours the cultures were visually inspected for hyphal formation by microscopy. The ability of the antifungal compound A16, at either 2 or 4 μg/mL, to induce osmotic stress was assessed using DAY185 grown in a 96 well microtiter plate containing RPMI 1640 media and NaCl, ranging in concentrations from 0-2 M in 0.25 M increments. The growth of the fungus was measured spectrophotometrically after 48 hours of growth at 35° C.
The C. albicans cell wall and membrane are important for osmoregulation to maintain proper physiological conditions to carryout enzymatic reactions. Since saponins are able to disrupt the fungal cell membrane, external osmotic stress should also have detrimental effects on the fungal cell. C. albicans was grown in the presence of 2 μg/mL of compound A16 under various salt concentrations to assess the effect the saponin has on salt induced osmotic stress.

Assay [3] deals with C. albicans DAY185 hyphae. Nature of the assay: in vitro hyphal inhibition in RPMI 1640. As to the method: as §1
C. albicans biofilms are composed of hyphae, pseudohyphae, yeast cells, and an extracellular matrix, where the hyphae play an integral role within this complex. In order to address the reduction in biofilm formation in the presence of saponins, we tested the ability of compound A16 to inhibit hyphae formation at various concentrations in RPMI.

`CC1CC[C@@]2(OC1)O[C@H]1CC3C4C[C@@H](O)C5C[C@@H](O[C@@H]6O[C@H](CO)[C@H](O[C@@H]7O[C@H](CO)[C@@H](O)[C@H](O[C@@H]8OC[C@@H](O)[C@H](O)[C@H]8O)[C@H]7O[C@@H]7O[C@H](CO)[C@@H](O)[C@H](O)[C@H]7O)[C@H](O)[C@H]6O)[C@H](O)C[C@]5(C)C4CC[C@]3(C)[C@H]1[C@@H]2C` (stereo partly shown) [A16, Aginoside]: the “killing by PEI-ce6 mediated PDI after pre-incubation with A16” value in assay [1] was “does not change dramatically”. The “NaCl concentration at which the fungus was unable to grow” value in assay [2] is 0.5 M. Moreover, the hyphae formation result is reported as “visible reduction in the number of hyphae” in assay [3] (1 μg/mL) and “very few hyphae formed” in assay [3] (2 μg/mL).
